Broadly, the AC50 is the concentration at which the activity in the assay is half-maximal. As a reminder, the IC50 is the concentration needed to halve the response being measured. The term EC50 denotes the concentration at which the effect is half-maximal. By Ki is commonly meant the equilibrium dissociation constant of an inhibitor or competing ligand from its target.

The source made the active and inactive calls. Some results are limits rather than exact numbers.

Assay [1] in a line: MITF Orthogonal Assay: SK-MEL-5 CTG Assay Measured in Cell-Based System Using Plate Reader - 2084-02_Inhibitor_Dose_DryPowder_Activity_Set7. The class given is functional.
The nature of assay [2]: MITF: Counter assay: A375 proliferation Measured in Cell-Based System Using Plate Reader - 2084-03_Inhibitor_Dose_DryPowder_Activity_Set8. The assay is classed as functional. The conditions noted are these: A-375.
Assay [3] can be described thus: TRPM1 promoter luciferase reporter signal decrease, dose response, MITF inhibitor project, cell-based, SK-MEL-5, dry powder, set 8 (AID 624430). The class given is functional.
The nature of another assay: cells. The conditions noted are these: HEK293.
The nature of assay [4]: NIH/3T3 fibroblast cytotoxicity, dose response, cytotoxicity control, cell-based, plate reader, dry powder, set 2 (AID 652280). The conditions noted are these: NIH3T3. The class given is functional.
The nature of assay [5]: T. cruzi growth inhibition in host cells, dose response, cell-based, plate reader, dry powder, set 2 (AID 652275). The class given is functional.
Assay [6] is described as follows: T. cruzi intracellular amastigote growth inhibition, dose response, imaging, CA-I/72 strain, bovine embryo skeletal muscle, dry powder (AID 651885). The class given is functional, cell-based.
Assay [7] deals with Streptococcus sp. 'group A'. Kind of assay: growth inhibition of control SK(-) GAS strain, dose response, counter-screen for streptokinase expression inhibitor project, luminescence, kanamycin, BacTiterGlo, confirmation (AID 1900). The assay is classed as functional, organism-based. Background: A counterscreen serves to expose hits that act by an unwanted route or on another target.

The next assay deals with T1, Streptokinase A (Streptococcus pyogenes serotype M1, UniProt P10520).
T1 sequence (P10520 whole entry): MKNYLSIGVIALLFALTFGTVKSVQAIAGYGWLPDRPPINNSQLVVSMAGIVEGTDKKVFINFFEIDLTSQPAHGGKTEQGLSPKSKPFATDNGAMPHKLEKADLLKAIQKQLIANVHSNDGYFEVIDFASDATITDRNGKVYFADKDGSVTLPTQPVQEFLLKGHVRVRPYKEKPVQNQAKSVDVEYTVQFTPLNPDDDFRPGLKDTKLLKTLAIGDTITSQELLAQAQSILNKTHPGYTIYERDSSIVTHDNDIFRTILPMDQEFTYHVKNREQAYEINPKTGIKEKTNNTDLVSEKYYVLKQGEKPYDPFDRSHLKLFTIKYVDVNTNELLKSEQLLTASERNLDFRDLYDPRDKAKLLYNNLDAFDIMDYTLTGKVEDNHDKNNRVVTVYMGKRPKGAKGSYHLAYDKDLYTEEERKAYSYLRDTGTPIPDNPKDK
In words: S. pyogenes streptokinase expression inhibitors, potency, dose response, plasminogen activation absorbance, OD405 (AID 1914).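 Note: secreted streptokinase activity via plasminogen activation per viability signal from cell pellet.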 The assay is classed as functional, Streptococcus pyogenes M1 GAS.

The test system of another assay is Streptococcus. In words: Group A Streptococcus viability loss, dose response, counter-screen for streptokinase expression inhibitor project, luminescence, BacTiterGlo (AID 1915).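 Note: potency for reduction of bacterial viability or growth.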 The class given is functional, organism-based.
Assay [8] in a line: ADAM10 inhibitors, peptide cleavage, dose response, biochemical, QFRET (AID 743254).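 Note: ADAM10 enzyme with the DM2 quenched FRET peptide as substrate; EDANS fluorescence gain as the protease cuts the substrate; inhibitor potency against ADAM10 proteolytic activity.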
In assay [9] the target is Disintegrin and metalloproteinase domain-containing protein 17 (Homo sapiens, UniProt P78536). Kind of assay: ADAM17 protease inhibitors, dose response, counter-screen for ADAM10 exosite inhibitor project, biochemical, quenched FRET substrate (AID 743253).
For assay [10], the target named is 1-phosphatidylinositol 4,5-bisphosphate phosphodiesterase gamma-1 (Homo sapiens, UniProt P19174). Kind of assay: Counterscreen for inhibitors of phospholipase C isozymes (PLC-B3): Fluorescence-based biochemical high throughput dose response assay to identify inhibitors of phospholipase C isozymes (PLC-gamma1).
Assay [11] has as its target 1-phosphatidylinositol 4,5-bisphosphate phosphodiesterase beta-3 (Homo sapiens, UniProt Q01970). In words: Fluorescence-based biochemical high throughput dose response assay to identify inhibitors of phospholipase C isozymes (PLC-B3).
Assay [12] in a line: HepG2 cell cytotoxicity, dose response, cytotoxicity control, cherry-picks, set 5 (AID 1053118). The assay is classed as functional, cell-based.
A short description of assay [13]: HEK293 cell cytotoxicity, dose response, cytotoxicity control, cherry-picks, set 5 (AID 1053117). The assay is classed as functional, cell-based.
Assay [14] is described as follows: A549 cell cytotoxicity, dose response, cytotoxicity control, cherry-picks, 26 µM top dose (AID 1053119). The class given is functional, cell-based.
Assay [15] in a line: inhibitors of fibronectin matrix deposition, dose response, AH1F cells, Alexa488-FN fluorescence, cherry-picks (AID 1035475). The assay is classed as functional, cell-based.
Assay [16] is described as follows: P. falciparum Dd2 growth inhibitors, dose response, SYBR Green, cherry-picked samples (AID 1159567). The class given is functional, cell-based.
Assay [17] in a line: HepG2 cell cytotoxicity, dose response, cytotoxicity control, cherry-picked samples (AID 1159577). The assay is classed as functional, cell-based.
Another assay deals with fMet-Leu-Phe receptor (Homo sapiens, UniProt P21462). In words: FPR ligands, dose response (AID 519). The assay is classed as functional.
In a further assay the target is Ephrin type-A receptor 4 (Mus musculus, UniProt Q03137). In words: inhibitors of EphA4 binding to KYL peptide, primary screen, biochemical, colorimetric, mouse EphA4 (AID 689). The assay is classed as functional.
In assay [18] the target is Metabotropic glutamate receptor 5 (Rattus norvegicus, UniProt P31424). Kind of assay: Identification of a glycine sulfonamide based non-MPEP site positive allosteric potentiator (PAM) of mGlu5 (calcium_assay). The class given is functional.
Metabotropic glutamate receptor 5, sequence (P31424 whole entry): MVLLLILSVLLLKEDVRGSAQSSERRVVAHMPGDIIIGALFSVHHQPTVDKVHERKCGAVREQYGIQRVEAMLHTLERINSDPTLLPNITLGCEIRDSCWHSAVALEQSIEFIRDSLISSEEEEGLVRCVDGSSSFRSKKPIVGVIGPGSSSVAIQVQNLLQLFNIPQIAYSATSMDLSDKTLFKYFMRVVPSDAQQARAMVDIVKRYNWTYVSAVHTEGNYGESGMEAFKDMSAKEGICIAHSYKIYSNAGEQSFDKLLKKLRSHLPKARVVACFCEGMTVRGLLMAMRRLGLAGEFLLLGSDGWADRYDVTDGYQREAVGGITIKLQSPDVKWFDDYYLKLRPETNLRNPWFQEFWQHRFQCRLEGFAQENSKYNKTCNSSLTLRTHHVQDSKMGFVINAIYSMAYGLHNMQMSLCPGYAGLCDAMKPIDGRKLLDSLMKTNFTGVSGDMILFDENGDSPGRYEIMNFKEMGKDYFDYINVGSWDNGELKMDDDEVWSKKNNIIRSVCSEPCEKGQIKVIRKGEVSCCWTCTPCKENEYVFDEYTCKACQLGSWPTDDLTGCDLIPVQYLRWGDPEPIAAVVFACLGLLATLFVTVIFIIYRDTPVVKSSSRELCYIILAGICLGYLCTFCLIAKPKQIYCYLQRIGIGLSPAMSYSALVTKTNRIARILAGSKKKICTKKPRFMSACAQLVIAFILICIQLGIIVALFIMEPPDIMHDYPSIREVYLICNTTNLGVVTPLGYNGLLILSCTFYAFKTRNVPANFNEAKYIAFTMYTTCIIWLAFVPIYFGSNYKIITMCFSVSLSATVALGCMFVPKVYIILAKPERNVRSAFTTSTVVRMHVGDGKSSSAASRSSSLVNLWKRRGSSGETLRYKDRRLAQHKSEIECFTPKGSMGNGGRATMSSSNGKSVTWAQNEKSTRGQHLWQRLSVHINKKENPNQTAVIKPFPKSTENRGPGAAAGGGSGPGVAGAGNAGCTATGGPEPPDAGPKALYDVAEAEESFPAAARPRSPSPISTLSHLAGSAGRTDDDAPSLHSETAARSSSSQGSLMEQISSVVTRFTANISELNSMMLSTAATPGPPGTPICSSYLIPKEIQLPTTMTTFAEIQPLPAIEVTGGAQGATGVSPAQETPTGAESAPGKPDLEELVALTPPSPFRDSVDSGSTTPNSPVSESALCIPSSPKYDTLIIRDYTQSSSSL

1-phosphatidylinositol 4,5-bisphosphate phosphodiesterase gamma-1, sequence (P19174 whole entry): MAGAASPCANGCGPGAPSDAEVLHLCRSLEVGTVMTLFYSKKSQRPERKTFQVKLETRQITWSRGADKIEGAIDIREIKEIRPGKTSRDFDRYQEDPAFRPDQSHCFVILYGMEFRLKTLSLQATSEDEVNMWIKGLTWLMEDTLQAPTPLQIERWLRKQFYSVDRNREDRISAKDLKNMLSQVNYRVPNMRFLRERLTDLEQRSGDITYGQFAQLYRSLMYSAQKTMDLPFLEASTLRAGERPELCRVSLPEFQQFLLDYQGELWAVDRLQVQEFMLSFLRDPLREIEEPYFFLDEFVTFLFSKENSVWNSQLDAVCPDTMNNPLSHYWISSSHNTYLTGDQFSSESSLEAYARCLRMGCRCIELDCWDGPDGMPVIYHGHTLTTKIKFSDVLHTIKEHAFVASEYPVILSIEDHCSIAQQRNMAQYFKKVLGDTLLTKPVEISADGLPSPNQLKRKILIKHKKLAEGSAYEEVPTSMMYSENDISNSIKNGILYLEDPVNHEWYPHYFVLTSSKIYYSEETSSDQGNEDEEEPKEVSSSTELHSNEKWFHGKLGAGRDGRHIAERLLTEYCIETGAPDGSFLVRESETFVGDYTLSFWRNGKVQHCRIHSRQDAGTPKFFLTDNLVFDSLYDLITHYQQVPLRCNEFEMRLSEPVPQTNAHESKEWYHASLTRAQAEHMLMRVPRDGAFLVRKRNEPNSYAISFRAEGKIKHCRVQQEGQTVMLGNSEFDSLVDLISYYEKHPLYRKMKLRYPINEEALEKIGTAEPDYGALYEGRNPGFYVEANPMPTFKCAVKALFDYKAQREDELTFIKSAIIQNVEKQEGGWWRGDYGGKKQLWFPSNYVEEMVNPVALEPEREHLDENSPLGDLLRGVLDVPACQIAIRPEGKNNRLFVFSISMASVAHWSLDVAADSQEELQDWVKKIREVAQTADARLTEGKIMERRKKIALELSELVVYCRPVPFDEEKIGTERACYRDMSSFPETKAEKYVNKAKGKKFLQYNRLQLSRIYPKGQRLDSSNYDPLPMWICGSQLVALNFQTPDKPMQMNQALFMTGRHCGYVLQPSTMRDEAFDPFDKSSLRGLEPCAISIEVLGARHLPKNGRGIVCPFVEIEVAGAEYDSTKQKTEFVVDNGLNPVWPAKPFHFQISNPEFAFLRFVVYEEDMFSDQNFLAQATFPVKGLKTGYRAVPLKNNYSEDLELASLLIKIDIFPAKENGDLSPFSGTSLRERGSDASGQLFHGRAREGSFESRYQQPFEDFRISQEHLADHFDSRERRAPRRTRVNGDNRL
fMet-Leu-Phe receptor, sequence (P21462 whole entry): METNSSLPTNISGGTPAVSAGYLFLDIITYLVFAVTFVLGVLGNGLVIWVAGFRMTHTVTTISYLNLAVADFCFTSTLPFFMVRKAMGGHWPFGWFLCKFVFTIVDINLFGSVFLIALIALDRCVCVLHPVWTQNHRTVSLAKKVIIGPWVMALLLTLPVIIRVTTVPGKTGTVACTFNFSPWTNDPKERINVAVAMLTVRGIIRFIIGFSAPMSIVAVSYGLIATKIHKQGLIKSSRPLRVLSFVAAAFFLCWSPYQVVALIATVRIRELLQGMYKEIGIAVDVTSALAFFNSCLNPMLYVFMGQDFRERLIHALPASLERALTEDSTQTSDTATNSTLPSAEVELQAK
1-phosphatidylinositol 4,5-bisphosphate phosphodiesterase beta-3, sequence (Q01970 whole entry): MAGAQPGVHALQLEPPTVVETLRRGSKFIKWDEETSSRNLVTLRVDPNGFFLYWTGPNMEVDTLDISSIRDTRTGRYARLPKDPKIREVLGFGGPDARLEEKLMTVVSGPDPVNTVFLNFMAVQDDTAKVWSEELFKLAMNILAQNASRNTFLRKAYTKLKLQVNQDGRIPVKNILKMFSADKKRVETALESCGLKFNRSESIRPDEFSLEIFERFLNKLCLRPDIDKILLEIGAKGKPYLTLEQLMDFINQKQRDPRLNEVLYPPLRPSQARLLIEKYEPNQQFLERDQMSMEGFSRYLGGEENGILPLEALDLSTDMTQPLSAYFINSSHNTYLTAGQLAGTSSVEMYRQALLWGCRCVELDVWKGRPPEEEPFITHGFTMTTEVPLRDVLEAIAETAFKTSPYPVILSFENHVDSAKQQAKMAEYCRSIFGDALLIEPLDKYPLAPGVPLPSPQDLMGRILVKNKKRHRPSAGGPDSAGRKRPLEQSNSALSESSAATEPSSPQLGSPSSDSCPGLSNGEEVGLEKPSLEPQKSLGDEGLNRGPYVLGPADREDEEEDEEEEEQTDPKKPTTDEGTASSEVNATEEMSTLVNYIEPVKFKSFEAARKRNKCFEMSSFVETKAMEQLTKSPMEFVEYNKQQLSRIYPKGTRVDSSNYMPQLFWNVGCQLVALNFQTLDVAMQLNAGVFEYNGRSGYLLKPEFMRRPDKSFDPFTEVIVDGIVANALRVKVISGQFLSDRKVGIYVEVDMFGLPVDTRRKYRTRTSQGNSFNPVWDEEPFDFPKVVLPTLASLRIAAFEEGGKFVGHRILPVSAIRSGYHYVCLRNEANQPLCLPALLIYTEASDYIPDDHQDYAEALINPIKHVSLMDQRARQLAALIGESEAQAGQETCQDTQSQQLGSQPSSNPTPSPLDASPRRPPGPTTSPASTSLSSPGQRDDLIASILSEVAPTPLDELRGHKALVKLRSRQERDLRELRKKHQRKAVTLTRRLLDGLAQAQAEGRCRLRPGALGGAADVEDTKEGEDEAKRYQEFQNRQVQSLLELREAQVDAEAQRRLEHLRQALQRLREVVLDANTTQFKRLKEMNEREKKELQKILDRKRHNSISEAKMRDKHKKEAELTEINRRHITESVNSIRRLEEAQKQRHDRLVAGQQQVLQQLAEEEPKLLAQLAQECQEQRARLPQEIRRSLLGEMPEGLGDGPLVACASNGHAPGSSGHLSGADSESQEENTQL
Ephrin type-A receptor 4, sequence (Q03137 whole entry): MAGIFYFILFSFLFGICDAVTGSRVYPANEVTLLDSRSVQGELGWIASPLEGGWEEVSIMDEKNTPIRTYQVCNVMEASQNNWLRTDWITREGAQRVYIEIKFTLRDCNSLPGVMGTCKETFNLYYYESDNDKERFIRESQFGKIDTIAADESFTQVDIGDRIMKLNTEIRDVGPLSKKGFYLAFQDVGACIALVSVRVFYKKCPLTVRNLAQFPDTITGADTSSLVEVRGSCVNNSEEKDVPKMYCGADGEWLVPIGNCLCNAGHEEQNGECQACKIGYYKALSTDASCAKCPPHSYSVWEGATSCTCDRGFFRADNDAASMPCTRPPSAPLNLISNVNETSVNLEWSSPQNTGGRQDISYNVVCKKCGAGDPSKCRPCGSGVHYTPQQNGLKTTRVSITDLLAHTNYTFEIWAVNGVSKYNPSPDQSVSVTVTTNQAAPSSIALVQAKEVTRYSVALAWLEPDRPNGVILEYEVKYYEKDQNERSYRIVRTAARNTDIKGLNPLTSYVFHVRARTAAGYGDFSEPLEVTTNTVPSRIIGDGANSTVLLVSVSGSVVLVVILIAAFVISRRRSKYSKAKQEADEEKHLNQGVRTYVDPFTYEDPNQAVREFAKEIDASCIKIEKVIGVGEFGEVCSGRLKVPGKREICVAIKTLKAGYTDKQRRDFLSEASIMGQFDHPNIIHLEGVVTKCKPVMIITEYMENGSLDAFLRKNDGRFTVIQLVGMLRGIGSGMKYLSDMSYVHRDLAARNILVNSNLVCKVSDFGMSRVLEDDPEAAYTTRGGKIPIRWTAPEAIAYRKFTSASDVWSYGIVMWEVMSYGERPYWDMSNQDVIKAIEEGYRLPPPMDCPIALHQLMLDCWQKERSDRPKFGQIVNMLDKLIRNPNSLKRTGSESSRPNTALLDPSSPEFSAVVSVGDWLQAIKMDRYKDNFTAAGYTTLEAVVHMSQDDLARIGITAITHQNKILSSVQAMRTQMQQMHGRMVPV

Turning to `CCN1CCN(C2=C(Nc3cccc(Cl)c3)C(=O)c3ccccc3C2=O)CC1`, the results for the half-maximal activity concentration (AC50) in assay [1], in assay [2] and in assay [3] were 10.1 µM (active), 31.7 µM (active) and 2.94 µM (active), respectively.
Regarding `COc1ccc(CCNC(=O)CSc2cn(Cc3cccc(C)c3)c3ccccc23)cc1OC`, the AC50 in the assay “cells” was > 52 µM (inactive).
For `C[C@H]1CN([C@@H](C)CO)C(=O)c2cccc(NC(=O)c3ccncc3)c2O[C@@H]1CN(C)Cc1ccc(Cl)c(Cl)c1`, the results for the AC50 in assay [4] and in assay [5] were 13.2 µM (active) and 0.00674 µM (active), respectively. Besides, the IC50 in assay [6] was 0.00211 µM (active).
Regarding `O=C(OCc1ccc(-c2ccccc2)cc1)c1cccc(O)c1`, the concentration for a half-maximal effect (EC50) in assay [7] was 11.4 µM (active); at Streptokinase A, 22.4 µM (active); with Streptococcus it was 19 µM (active). The IC50 in assay [8] is > 7.72 µM (active); in assay [9], > 69.5 µM (inactive).
Regarding `O=[N+]([O-])c1ccc2[nH]cc(S(=O)(=O)N3CCN(c4cccc(Cl)c4)CC3)c2c1`, the IC50 in [10] and in assay [11] was > 122 µM (inactive) throughout.
On to `CO[C@H]1CN(C)C(=O)c2ccc(NC(=O)c3ccc(-c4ccccc4)cc3)cc2OC[C@@H](C)NC[C@@H]1C`, for which the AC50 in assay [12] is 10.9 µM (active); in assay [13] it was 16.3 µM (active); in assay [14], 13.4 µM (active); in assay [15], > 70 µM (inactive); in [16], 2.02 µM (active); in assay [17] it was 7.74 µM (active).
For `COc1ccc(-c2cn3cccnc3n2)cc1NC(=O)C1CCCC1`, the Ki at fMet-Leu-Phe receptor was > 66.7 µM (inactive).
For `CS(=O)(=O)N(CC(=O)Nc1cccc(Cl)c1)c1ccccc1Cl`, on Ephrin type-A receptor 4, the IC50 is listed as > 100 µM (not active). Besides, the EC50 in assay [18] was 0.051 µM.

Values taken from ChEMBL document CHEMBL1201862, “PubChem BioAssay data set” (2004).
